Experimental findings from ChEMBL document CHEMBL4373747 (ACS Med Chem Lett, 2020) are described below.

One data set deals with T1, Histone deacetylase 8 (Homo sapiens, UniProt Q9BY41).
T1 sequence (Q9BY41 whole entry): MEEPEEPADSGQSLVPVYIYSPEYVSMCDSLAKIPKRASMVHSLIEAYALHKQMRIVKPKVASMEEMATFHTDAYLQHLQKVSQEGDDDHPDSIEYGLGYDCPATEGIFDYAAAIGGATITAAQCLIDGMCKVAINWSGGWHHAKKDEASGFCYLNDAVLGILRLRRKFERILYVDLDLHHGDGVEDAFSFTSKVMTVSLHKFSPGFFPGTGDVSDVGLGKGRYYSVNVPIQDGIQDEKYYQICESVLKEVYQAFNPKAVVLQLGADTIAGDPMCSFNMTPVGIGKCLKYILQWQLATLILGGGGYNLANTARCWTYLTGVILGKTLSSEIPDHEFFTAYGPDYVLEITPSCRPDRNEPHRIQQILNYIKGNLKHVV
Nature of the data set: Inhibition of recombinant full length human HDAC8 expressed in baculovirus infected Sf9 cells using FAM-RHKK-TFAc as substrate incubated for 3 hrs by electrophoretic mobility shift assay.

The target of data set [1] is T2, Protein deacetylase HDAC6 (Homo sapiens, UniProt Q9UBN7).
T2 sequence (Q9UBN7 whole entry): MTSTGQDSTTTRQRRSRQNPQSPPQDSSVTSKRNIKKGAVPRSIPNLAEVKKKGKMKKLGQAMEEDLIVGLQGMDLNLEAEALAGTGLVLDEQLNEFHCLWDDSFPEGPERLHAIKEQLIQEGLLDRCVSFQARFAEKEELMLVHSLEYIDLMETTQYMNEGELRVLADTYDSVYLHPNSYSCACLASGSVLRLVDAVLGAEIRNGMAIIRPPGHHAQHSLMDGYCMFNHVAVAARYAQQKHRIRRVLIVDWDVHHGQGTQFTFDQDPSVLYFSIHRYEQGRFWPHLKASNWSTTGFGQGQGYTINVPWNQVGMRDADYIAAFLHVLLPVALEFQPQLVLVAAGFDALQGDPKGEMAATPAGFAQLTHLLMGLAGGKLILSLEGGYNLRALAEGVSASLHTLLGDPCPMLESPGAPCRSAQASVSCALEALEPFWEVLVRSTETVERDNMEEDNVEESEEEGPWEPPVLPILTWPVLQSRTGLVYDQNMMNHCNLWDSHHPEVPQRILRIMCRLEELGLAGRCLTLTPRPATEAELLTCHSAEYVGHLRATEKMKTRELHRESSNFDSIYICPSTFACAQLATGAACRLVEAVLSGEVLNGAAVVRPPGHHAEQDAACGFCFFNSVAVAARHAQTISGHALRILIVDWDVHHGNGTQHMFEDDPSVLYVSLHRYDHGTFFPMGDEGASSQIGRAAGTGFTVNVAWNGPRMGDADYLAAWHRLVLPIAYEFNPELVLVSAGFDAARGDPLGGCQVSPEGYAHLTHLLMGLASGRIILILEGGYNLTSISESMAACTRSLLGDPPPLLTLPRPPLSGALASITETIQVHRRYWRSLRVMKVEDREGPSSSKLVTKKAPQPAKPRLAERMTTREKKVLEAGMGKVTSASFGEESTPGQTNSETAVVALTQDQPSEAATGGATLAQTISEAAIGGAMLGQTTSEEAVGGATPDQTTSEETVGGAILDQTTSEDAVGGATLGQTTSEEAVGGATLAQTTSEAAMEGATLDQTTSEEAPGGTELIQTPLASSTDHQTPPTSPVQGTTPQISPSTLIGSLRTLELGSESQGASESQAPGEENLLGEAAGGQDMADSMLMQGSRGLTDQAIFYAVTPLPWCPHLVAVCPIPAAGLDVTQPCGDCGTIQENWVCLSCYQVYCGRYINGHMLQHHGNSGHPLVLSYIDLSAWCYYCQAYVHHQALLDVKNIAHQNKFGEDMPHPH
The data set is described as follows: Inhibition of recombinant full length human HDAC6 expressed in baculovirus infected Sf9 cells assessed as inhibitory constant using FAM-RHKK-Ac as substrate incubated for 5 hrs by electrophoretic mobility shift assay. A general note: In EMSA bound probe runs differently from free probe, usually more slowly.

In data set [2] the test system is MV4-11. Nature of the data set: Cytotoxicity against human MV4-11 cells assessed as reduction in cell viability incubated for 72 hrs by cell-titer blue assay. The class given is functional, cell-based. The settings on record: MV4-11, 72 h.
For the next data set, the system named is MOLM-13. The data set is described as follows: Cytotoxicity against human MOLM13 cells assessed as reduction in cell viability incubated for 72 hrs by cell-titer blue assay. The class given is functional, cell-based. The settings on record: MOLM-13, 72 h.
The subject of a further data set is MDA-MB-231. Nature of the data set: Cytotoxicity against human MDA-MB-231 cells assessed as reduction in cell viability incubated for 72 hrs by cell-titer blue assay. The class given is functional, cell-based. The settings on record: MDA-MB-231, 72 h.
The test system of a further data set is MDA-MB-468. The data set is described as follows: Cytotoxicity against human MDA-MB-468 cells assessed as reduction in cell viability incubated for 72 hrs by cell-titer blue assay. The class given is functional, cell-based. The settings on record: MDA-MB-468, 72 h.
The nature of data set [3]: Cytotoxicity against human MRC9 cells assessed as reduction in cell viability incubated for 72 hrs by cell-titer blue assay. It counts as cell-based. The settings on record: MRC9, 72 h.
Data set [4] is described as follows: Intrinsic clearance in ICR/CD1 mouse hepatocytes at 1 uM measured upto 120 mins by LCMS analysis. The class given is ADME, cell-based, Hepatocyte. The settings on record: 2 h.
The nature of data set [5]: Protein binding in CD-1 mouse plasma at 1 uM incubated for 6 hrs by LCMS analysis. It counts as ADME, cell-free. The settings on record: mouse, 6 h, 1 µM.
Data set [6] in a line: Stability in CD-1 mouse hepatocytes assessed as compound remaining at 1 uM measured up to 6 hrs by LCMS analysis. It counts as ADME, cell-based, Hepatocyte. The settings on record: CD-1, mouse, read-out: Stability.
Data set [7] in a line: Apparent permeability from apical to basolateral side in human Caco2 cells incubated for 2 hrs by LC/MS analysis. It counts as ADME, cell-based, Caco-2. The settings on record: caco-2, 2 h. (Caco-2 monolayers are a common model of the intestinal barrier.)
Data set [8] can be described thus: Efflux ratio of apparent permeability in human Caco2 cells incubated for 2 hrs by LC/MS analysis. The settings on record: caco-2, 2 h. It counts as ADME, cell-based, Caco-2.
Data set [9] concerns MV4-11. The data set is described as follows: Induction of apoptosis in human MV4-11 cells assessed as early apoptotic cells at 1 uM incubated for 18 hrs by annexin V FITC and PI based flow cytometry (reference value: 19.46 to 22.17 %). It counts as functional.
Data set [10] deals with MV4-11. The data set is described as follows: Induction of apoptosis in human MV4-11 cells assessed as early apoptotic cells at 2 uM incubated for 18 hrs by annexin V FITC and PI based flow cytometry (reference value: 19.46 to 22.17 %). The class given is functional. In general terms: Flow cytometry measures light scatter and fluorescence of single cells or particles in a stream.

In data set [11] the test system is MV4-11. Nature of the data set: Induction of apoptosis in human MV4-11 cells assessed as late apoptotic cells at 0.25 uM incubated for 18 hrs by annexin V FITC and PI based flow cytometry (reference value: 9.2 to 9.63 %). The class given is functional.
In data set [12] the test system is MV4-11. Nature of the data set: Induction of apoptosis in human MV4-11 cells assessed as late apoptotic cells at 0.5 uM incubated for 18 hrs by annexin V FITC and PI based flow cytometry (reference value: 9.2 to 9.63 %). The class given is functional.
Data set [13] deals with MV4-11. The data set is described as follows: Induction of apoptosis in human MV4-11 cells assessed as viable cells at 0.25 uM incubated for 18 hrs by annexin V FITC and PI based flow cytometry (reference value: 53.01 to 53.07 %). It counts as functional.
Data set [14] concerns MV4-11. The data set is described as follows: Induction of apoptosis in human MV4-11 cells assessed as early apoptotic cells at 0.25 uM incubated for 18 hrs by annexin V FITC and PI based flow cytometry (reference value: 19.46 to 22.17 %). The class given is functional.
Data set [15] deals with MV4-11. Nature of the data set: Induction of apoptosis in human MV4-11 cells assessed as viable cells at 0.5 uM incubated for 18 hrs by annexin V FITC and PI based flow cytometry (reference value: 53.01 to 53.07 %). The class given is functional.
For data set [16], the system named is MV4-11. The data set is described as follows: Induction of apoptosis in human MV4-11 cells assessed as early apoptotic cells at 0.5 uM incubated for 18 hrs by annexin V FITC and PI based flow cytometry (reference value: 19.46 to 22.17 %). The class given is functional.
Data set [17] has as its system MV4-11. The data set is described as follows: Induction of apoptosis in human MV4-11 cells assessed as viable cells at 1 uM incubated for 18 hrs by annexin V FITC and PI based flow cytometry (reference value: 53.01 to 53.07 %). It counts as functional.
Data set [18] deals with MV4-11. The data set is described as follows: Induction of apoptosis in human MV4-11 cells assessed as late apoptotic cells at 1 uM incubated for 18 hrs by annexin V FITC and PI based flow cytometry (reference value: 9.2 to 9.63 %). It counts as functional.
The test system of data set [19] is MV4-11. The data set is described as follows: Induction of apoptosis in human MV4-11 cells assessed as viable cells at 2 uM incubated for 18 hrs by annexin V FITC and PI based flow cytometry (reference value: 53.01 to 53.07 %). It counts as functional.
The test system of data set [20] is MV4-11. The data set is described as follows: Induction of apoptosis in human MV4-11 cells assessed as late apoptotic cells at 2 uM incubated for 18 hrs by annexin V FITC and PI based flow cytometry (reference value: 9.2 to 9.63 %). It counts as functional.
Data set [21] deals with MV4-11. Nature of the data set: Induction of apoptosis in human MV4-11 cells assessed as viable cells at 4 uM incubated for 18 hrs by annexin V FITC and PI based flow cytometry (reference value: 53.01 to 53.07 %). The class given is functional.
The test system of data set [22] is MV4-11. The data set is described as follows: Induction of apoptosis in human MV4-11 cells assessed as early apoptotic cells at 4 uM incubated for 18 hrs by annexin V FITC and PI based flow cytometry (reference value: 19.46 to 22.17 %). It counts as functional.
The test system of data set [23] is MV4-11. The data set is described as follows: Induction of apoptosis in human MV4-11 cells assessed as late apoptotic cells at 4 uM incubated for 18 hrs by annexin V FITC and PI based flow cytometry (reference value: 9.2 to 9.63 %). The class given is functional.
Data set [24] deals with MV4-11. The data set is described as follows: Induction of apoptosis in human MV4-11 cells assessed as late apoptotic cells incubated for 18 hrs by annexin V FITC and PI based flow cytometry. It counts as functional, cell-based.
Data set [25] in a line: Oral bioavailability in Balb/c nude mouse at 50 mg/kg measured upto 24 hrs by LC/MS/MS analysis. It counts as ADME, organism-based. The settings on record: in vivo.

On to `CC(C)(C)c1ccc(CN(C(=O)CN(Cc2c(F)c(F)c(F)c(F)c2F)S(=O)(=O)c2ccc(F)cc2)c2ccc(C(=O)NO)cc2)cc1`, for which the IC50 (usually the point on the concentration scale where inhibition reaches its midpoint) on Histone deacetylase 8 is more than 1000 nM; in the data set on MV4-11 [2], 1880 nM; with MOLM-13 it was 2100 nM; with MDA-MB-231, 2620 nM; in the data set on MDA-MB-468 it was 4210 nM; in data set [3] it was 19200 nM. In addition, the Ki (usually the dissociation constant of the complex between target and ligand, obtained from inhibition or displacement) in data set [1] was 3600 nM. In addition, the CLH in data set [4] turned out to be 36 µL/min. In addition, the PPB in data set [5] is on record as 99.6%. Further, the remaining at 6 h, 1 µM in [6] was 20%. For the same compound, the Papp (as a rule, a coefficient for how fast a substance crosses the barrier) in data set [7] came out at 0.27 ×10⁻⁶ cm/s. For the same compound, in [8], the Ratio is listed as 3.83.

For `O=C(CCCCCCC(=O)Nc1ccccc1)NO` [VORINOSTAT], the IC50 with MV4-11 [2] stood at 310 nM. The Activity in the data set with MV4-11 [9] came to 24.22%; in the data set with MV4-11 [10] it was 35.72%; in the data set with MV4-11 [11] it was 12.72%; with MV4-11 [12], 11.46%; in the data set with MV4-11 [13], 51.83%; in the data set with MV4-11 [14], 19.79%. Moreover, the Activity with MV4-11 [15] is 38.87%; in the data set on MV4-11 [16], 15.37%; with MV4-11 [17], 28.82%; in the data set on MV4-11 [18] it was 27.29%; in the data set on MV4-11 [19], 24.13%; in the data set with MV4-11 [20], 30.07%. Moreover, the Activity with MV4-11 [21] is 20.37%; with MV4-11 [22], 35.44%; in the data set on MV4-11 [23] it was 26.52%; with MV4-11 [24], “Dose-dependent effect”. The bioavailability (commonly dose-corrected exposure relative to a reference, in per cent) in [25] amounted to 8%.
